Measured values reported in publication PMC11484933, “Active state structures of a bistable visual opsin bound to G proteins” (Nature Communications, 2024).

Legend:
[1] = molecular target: T1, hGi (Gαi1β1γ1 heterotrimer) (Homo sapiens, UniProt P63096); experiment: GTPase-Glo luminescence assay; type: biochemical; details: 2 uM G protein, 2 uM GTP stock mixed 1:1; 20 C; with and without JSR1-ATR6.11
T1 construct: gene GNAI1; human Galphai1 with N-terminal TEV-cleavable deca-His tag from E. coli BL21(DE3); Gbeta1gamma1 from transducin of bovine retinae

jsGiq (Gαiqβ1γ2) = molecular target: T2, jsGiq (Gαiqβ1γ2) (Homo sapiens, UniProt P63096, A31R/D193S/L194I/D337C/T340K/V342T/I344L/K345Q/D350E/G352N/F354V); experiment: GTPase-Glo luminescence assay; type: biochemical; details: 2 uM G protein, 2 uM GTP stock mixed 1:1; 20 C; with and without JSR1-ATR6.11
T2 construct: gene GNAI1; heterotrimer from High Five insect cells, His tag removed with HRV 3C
T2 sequence (P63096 2-354 A31R/D193S/L194I/D337C/T340K/V342T/I344L/K345Q/D350E/G352N/F354V): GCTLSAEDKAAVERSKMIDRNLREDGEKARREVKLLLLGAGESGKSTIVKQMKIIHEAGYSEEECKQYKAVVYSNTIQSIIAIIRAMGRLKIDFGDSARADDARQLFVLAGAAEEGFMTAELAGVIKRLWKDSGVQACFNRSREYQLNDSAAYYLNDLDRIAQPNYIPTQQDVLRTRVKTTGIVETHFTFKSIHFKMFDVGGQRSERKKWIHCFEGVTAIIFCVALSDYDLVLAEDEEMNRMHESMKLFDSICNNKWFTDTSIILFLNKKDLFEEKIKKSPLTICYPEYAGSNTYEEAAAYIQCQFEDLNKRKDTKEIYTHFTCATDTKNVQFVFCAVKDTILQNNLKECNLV
T2 sequence (P62873 2-340 partner): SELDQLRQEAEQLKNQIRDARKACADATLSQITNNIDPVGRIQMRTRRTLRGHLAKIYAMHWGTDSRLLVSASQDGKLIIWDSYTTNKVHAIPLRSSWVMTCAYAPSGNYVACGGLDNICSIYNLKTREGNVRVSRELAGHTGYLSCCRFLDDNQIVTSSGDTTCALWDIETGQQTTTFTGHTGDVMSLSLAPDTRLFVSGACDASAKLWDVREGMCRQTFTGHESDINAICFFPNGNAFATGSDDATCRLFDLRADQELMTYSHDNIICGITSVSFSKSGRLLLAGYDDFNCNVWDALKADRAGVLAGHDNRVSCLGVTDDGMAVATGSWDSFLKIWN
T2 sequence (P59768 2-68 partner): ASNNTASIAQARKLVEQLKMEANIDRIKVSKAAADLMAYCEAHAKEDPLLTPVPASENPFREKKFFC

T1 sequence (P63096 2-354): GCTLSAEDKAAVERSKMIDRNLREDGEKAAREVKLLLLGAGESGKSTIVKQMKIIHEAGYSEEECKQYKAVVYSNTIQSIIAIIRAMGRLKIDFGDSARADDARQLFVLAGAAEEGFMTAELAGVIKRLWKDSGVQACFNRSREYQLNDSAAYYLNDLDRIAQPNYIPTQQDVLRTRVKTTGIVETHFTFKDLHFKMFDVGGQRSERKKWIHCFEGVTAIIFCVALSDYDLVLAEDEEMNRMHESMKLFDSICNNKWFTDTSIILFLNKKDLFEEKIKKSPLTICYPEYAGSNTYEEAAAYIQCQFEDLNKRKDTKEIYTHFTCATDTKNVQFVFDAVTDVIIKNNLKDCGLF
T1 sequence (P62871 2-340 partner): as the sequence (P62873 2-340 partner) above
T1 sequence (P02698 2-71 partner): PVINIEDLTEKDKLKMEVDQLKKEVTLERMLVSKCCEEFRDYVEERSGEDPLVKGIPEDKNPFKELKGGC

For `Nc1nc2c(ncn2[C@@H]2O[C@H](COP(=O)(O)OP(=O)(O)OP(=O)(O)O)[C@@H](O)[C@H]2O)c(=O)[nH]1` [GTP], the GTP hydrolysis % [1] was “GTPase-Glo assay showing GTP depletion for hGi and jsGiq samples” and the GTP hydrolysis % (jsGiq (Gαiqβ1γ2)) was “An in vitro activity assay showed that this chimera retains intrinsic GTPase activity”.
